This is an account of results in US20220042033A1, “COMPOSITION AND METHOD FOR CONFERRING AND/OR ENHANCING TOLERANCE AGAINST HERBICIDES BY USING VARIANTS OF PPO” (FarmHannong Co., Ltd., priority 2017, published 2022).

Common to all, as to format: cell-based
Test [1] concerns E. coli BT3(ΔPPO) transformed with Auxenochlorella protothecoides ApPPO1 (SEQ ID NO: 1) variant Y422T (YT). Put plainly: Herbicide tolerance test in PPO-deficient E. coli BT3(ΔPPO), growth on plates. The note with it: Table 7, light, 37° C., 16 to 20 hours, vs wild type at highest herbicide concentration.
Method: (§2) The mutated CyPPO gene obtained from the Example 2 was transformed to BT3 (ΔPPO) strain which is deficient of PPO activity and cultured in LB media with PPO-inhibiting herbicide, thereby examining whether growth of transformed BT3 was not inhibited.
(§3) BT3 competent cells were transformed with the pET303-ApPPO1 and pET303-MxPPO plasmids and those with a mutation(s) constructed in Example 2 respectively, and were cultured in LB agar media containing carbenicillin (Gold Biotechnology, Co., Ltd.).
(§4) Single colony of E. coli transformed with each CyPPO gene was cultured in 3 ml of LB broth containing carbenicillin overnight, and then was subcultured until absorbance (OD600) reached 0.5 to 1. Then, it was diluted with LB broth to OD600=0.5. Again, the diluted solution was serially diluted 4 times by a factor of one tenth.
(§5) The LB agar media (LB 25 g/l, Bacto agar 15 g/l) containing carbenicillin (100 μg/ml) and 0 to 4,000 μM of various herbicides dissolved in DMSO was prepared. Next, 10 μl of each diluted solution was dropped on the plate and cultured at 37° C. under light (Tables 7, 9 and 10, FIGS. 2 to 6, 13 to 20) or dark (Tables 8 and 11, FIGS. 7 to 12, 21 to 24) for 16 to 20 hours. Then, the extent of tolerance was evaluated.
(§6) The extent of herbicide tolerance of the ApPPO1 or MxPPO mutated genes was evaluated by comparing that of mutated genes with that of ApPPO1 or MxPPO wild type. The relative tolerance was represented with “+” as a factor of 10 times.
(§7) In Tables 7 to 11, tolerance level was presented as ‘−’ of tolerance of wild type and of variants equivalent to that of wild type, and was done as ‘+’ per each 10 fold resistance until ‘+++++’ as maximal resistance. […] A dilution series (OD600=0.5, 0.05, 0.005, 0.0005, 0.00005) was made and spotted on LB agar plates supplemented with herbicides.
For test [2], the system named is E. coli BT3(ΔPPO) transformed with Auxenochlorella protothecoides ApPPO1 (SEQ ID NO: 1) variant Y422I (YI). The note with it: Table 7, light, 37° C., 16 to 20 hours, vs wild type at highest herbicide concentration.
Method: as §2, §3, §4, §5, §6, §7
The subject of test [3] is E. coli BT3(ΔPPO) transformed with Auxenochlorella protothecoides ApPPO1 (SEQ ID NO: 1) variant V360M (VM). Kind of test: Herbicide tolerance test in PPO-deficient E. coli BT3(ΔPPO), growth on plates. As to conditions: Table 7, light, 37° C., 16 to 20 hours, vs wild type at highest herbicide concentration.
Method: as §2, §3, §4, §5, §6, §7
Test [4] concerns E. coli BT3(ΔPPO) transformed with Auxenochlorella protothecoides ApPPO1 (SEQ ID NO: 1) variant A215L (AL). The description is as above. As to conditions: Table 7, light, 37° C., 16 to 20 hours, vs wild type at highest herbicide concentration.
Method: as §2, §3, §4, §5, §6, §7
In test [5] the test system is E. coli BT3(ΔPPO) transformed with Auxenochlorella protothecoides ApPPO1 (SEQ ID NO: 1) variant Y422C (YC). The test is described as above. As to conditions: Table 7, light, 37° C., 16 to 20 hours, vs wild type at highest herbicide concentration.
Method: as §2, §3, §4, §5, §6, §7
Test [6] relates to E. coli BT3(ΔPPO) transformed with Auxenochlorella protothecoides ApPPO1 (SEQ ID NO: 1) variant A215C (AC). The description is as above. The note with it: Table 7, light, 37° C., 16 to 20 hours, vs wild type at highest herbicide concentration.
Method: as §2, §3, §4, §5, §6, §7
The test system of test [7] is E. coli BT3(ΔPPO) transformed with Auxenochlorella protothecoides ApPPO1 (SEQ ID NO: 1) variant Y422M (YM). The test is described as above. The note with it: Table 7, light, 37° C., 16 to 20 hours, vs wild type at highest herbicide concentration.
In test [8] the test system is E. coli BT3(ΔPPO) transformed with Auxenochlorella protothecoides ApPPO1 wild type, SEQ ID NO: 1. The test is described as above. As to conditions: ApPPO1 WT, Table 7; light, 37° C., 16 to 20 hours; vs wild type at highest herbicide concentration. On the procedure: (§1) Then, the extent of tolerance was evaluated.
Test [9] concerns E. coli BT3(ΔPPO) transformed with Auxenochlorella protothecoides ApPPO1 (SEQ ID NO: 1) variant Y422L (YL). Described as above. The note with it: Table 7, light, 37° C., 16 to 20 hours, vs wild type at highest herbicide concentration.
Method: as §2, §3, §4, §5, §6, §7
Test [10] concerns E. coli BT3(ΔPPO) transformed with Myxococcus xanthus MxPPO (SEQ ID NO: 3) variant I311M. The description is as above. As to conditions: Table 9, light, tiafenacil to 2000 μM, saflufenacil to 200 μM, flumioxazin to 100 μM.
Method: as §2, §3, §4, §5
(§8) The extent of herbicide tolerance of the ApPPO1 or MxPPO mutated genes was evaluated by comparing that of mutated genes with that of ApPPO1 or MxPPO wild type. […]
In test [11] the test system is E. coli BT3(ΔPPO) transformed with Myxococcus xanthus MxPPO (SEQ ID NO: 3) variant A170C. Described as above. As to conditions: Table 9, light, tiafenacil to 2000 μM, saflufenacil to 200 μM, flumioxazin to 100 μM.
Method: as §2, §3, §4, §5, §8
The test system of test [12] is E. coli BT3(ΔPPO) transformed with Myxococcus xanthus MxPPO (SEQ ID NO: 3) variant M365L. Described as above. As to conditions: Table 9, light, tiafenacil to 2000 μM, saflufenacil to 200 μM, flumioxazin to 100 μM.
Method: as §2, §3, §4, §5, §8
Test [13] relates to E. coli BT3(ΔPPO) transformed with Myxococcus xanthus MxPPO (SEQ ID NO: 3) variant M365V. Described as above. As to conditions: Table 9, light, tiafenacil to 2000 μM, saflufenacil to 200 μM, flumioxazin to 100 μM.
Test [14] deals with E. coli BT3(ΔPPO) transformed with Myxococcus xanthus MxPPO wild type, SEQ ID NO: 3. The test is described as above. As to conditions: MxPPO WT, Table 9; light; tiafenacil to 2000 μM, saflufenacil to 200 μM, flumioxazin to 100 μM. The protocol:
as §1

For test [15], the system named is E. coli BT3(ΔPPO) transformed with Myxococcus xanthus MxPPO (SEQ ID NO: 3) variant A170L. Described as above. The note with it: Table 9, light, tiafenacil to 2000 μM, saflufenacil to 200 μM, flumioxazin to 100 μM.
Method: as §2, §3, §4, §5, §8
Test [16] deals with E. coli BT3(ΔPPO) transformed with Myxococcus xanthus MxPPO (SEQ ID NO: 3) variant M365I. The test is described as above. The note with it: Table 9, light, tiafenacil to 2000 μM, saflufenacil to 200 μM, flumioxazin to 100 μM.
Method: as §2, §3, §4, §5, §8

As to `CS(=O)(=O)NC(=O)c1cc(Oc2ccc(C(F)(F)F)cc2Cl)ccc1[N+](=O)[O-]` [Fomesafen, fomesafen], the “relative herbicide tolerance level” value was “+ (1-9 fold higher tolerance)” in test [1]; “+ (1-9 fold higher tolerance)” in test [2]; “+ (1-9 fold higher tolerance)” in [3]; “+++ (100-999 fold higher tolerance)” in test [4]; “++ (10-99 fold higher tolerance)” in test [5]; “+ (1-9 fold higher tolerance)” in test [6]. For the same compound, the “relative herbicide tolerance level” value in test [7] was “+ (1-9 fold higher tolerance)”; in [8], “−”; in test [9], “+ (1-9 fold higher tolerance)”.
For the compound `O=C(O)c1cc(Oc2ccc(C(F)(F)F)cc2Cl)ccc1[N+](=O)[O-]` [acifluorfen], the “relative herbicide tolerance level” value in [1] is given as “+ (1-9 fold higher tolerance)”; in test [2], “+ (1-9 fold higher tolerance)”; in test [3], “++ (10-99 fold higher tolerance)”; in test [4], “+++ (100-999 fold higher tolerance)”; in test [5], “++ (10-99 fold higher tolerance)”; in test [6] it was “++ (10-99 fold higher tolerance)”. Further, the “relative herbicide tolerance level” value in test [7] was “++ (10-99 fold higher tolerance)”; in test [8], “−”; in test [9], “++ (10-99 fold higher tolerance)”.
As for `CC(C)=C1OC(=O)N(c2cc(OC3CCCC3)c(Cl)cc2F)C1=O` [pentoxazone], the “relative herbicide tolerance level” value in test [2] was “++ (10-99 fold higher tolerance)”; in [3], “+ (1-9 fold higher tolerance)”; in test [5], “+++ (100-999 fold higher tolerance)”; in test [6], “+ (1-9 fold higher tolerance)”; in [8] it was “−”.
For the compound `C#CCN(C)c1c(C#N)cnn1-c1nn2c(c1Cl)CCCC2` [pyraclonil], the “relative herbicide tolerance level” value is reported as “+ (1-9 fold higher tolerance)” in test [1]; “+ (1-9 fold higher tolerance)” in [2]; “+ (1-9 fold higher tolerance)” in test [3]; “++ (10-99 fold higher tolerance)” in [4]; “++ (10-99 fold higher tolerance)” in test [5]; “+ (1-9 fold higher tolerance)” in test [6]. For the same compound, the “relative herbicide tolerance level” value in test [7] is recorded as “++ (10-99 fold higher tolerance)”; in test [8], “−”; in [9], “++ (10-99 fold higher tolerance)”.
With `CCOC(=O)COc1cc(-c2nn(C)c(OC(F)F)c2Cl)c(F)cc1Cl` [pyraflufenethyl, pyraflufen-ethyl], the “relative herbicide tolerance level” value in test [2] was “++ (10-99 fold higher tolerance)”; in [4], “+++ (100-999 fold higher tolerance)”; in test [5], “+++ (100-999 fold higher tolerance)”; in test [8], “−”.
As to `CC(C)N(C)S(=O)(=O)NC(=O)c1cc(-n2c(=O)cc(C(F)(F)F)n(C)c2=O)c(F)cc1Cl` [saflufenacil], the “relative herbicide tolerance level” value in test [1] is listed as “++++ (1,000-9,999 fold higher tolerance)”; in test [2] it was “+++++ (more than 10,000 fold higher tolerance)”; in test [10] it was “++ (10-99 fold higher tolerance)”; in test [3] it was “+++ (100-999 fold higher tolerance)”; in test [4], “++++ (1,000-9,999 fold higher tolerance)”; in test [5] it was “+++ (100-999 fold higher tolerance)”. The “relative herbicide tolerance level” value was “+++ (100-999 fold higher tolerance)” in test [11]; “++ (10-99 fold higher tolerance)” in test [12]; “+++ (100-999 fold higher tolerance)” in test [13]; “+ (1-9 fold higher tolerance)” in test [6]; “+++++ (more than 10,000 fold higher tolerance)” in test [7]; “−” in test [8]. For the same compound, the “relative herbicide tolerance level” value in test [14] is “−”; in test [15] it was “++ (10-99 fold higher tolerance)”; in test [9] it was “++++ (1,000-9,999 fold higher tolerance)”; in test [16], “++ (10-99 fold higher tolerance)”.
